Laboratory results reported in patent US7982017B2, “Antibodies recognizing a carbohydrate containing epitope on CD-43 and CEA expressed on cancer cells and methods using same” (BioAlliance C.V., priority 2007, dated 2011).

Assays:
COLO 205 cells [1] = assay: Six-hour apoptosis assay (Annexin V / PI, FACS) in COLO 205; assay type: cell-based; conditions: 6 h
Procedure: 1.5×10^5 of COLO 205 cells were seeded into the wells of 96-well plates. Aliquots of purified m5F1, c5F1-v0, c5F1-v15, c5F1-v16 and control antibodies at the concentration ranging from 2 to 32 ug/ml were prepared freshly in culture medium and added to each well. The sample treated with m9E10 and h16C11A were used as isotype control. The treated cells were kept at 37° incubator for 6 h before FACS analysis for apoptosis. For cellular apoptosis assay, Annexin V staining was measured using Annexin-V-FITC Apoptosis Detection Kit (Strong Biotech, Cat. No. AVK250) following the manufacturer's instruction. In brief, the treated cells were harvested and resuspended in Annexin V binding buffer containing Annexin V-FITC at room temperature. After 15 min incubation in the dark, the cells were washed twice with 200 μl of Annexin V binding buffer. Before FACS analysis, 0.25 μg/ml of propidium iodide (PI) was added. All flow cytometric analyses were performed on a BD-LSR flow cytometer (Becton Dickinson) using the Cell Quest software. The Annexin VI positive and/or PI positive cells are considered apoptotic cells.
1.5×10^5 of Colo205 cells were seeded into the wells of 96-well plates. Aliquots of purified m5F1, c5F1, c5F1-v17, c5F1-v24, c5F1-v25 and control antibodies at the concentration ranging from 8 to 32 ug/ml were prepared freshly in culture medium and added to each well. The treated cells were kept at 37° incubator for 6 h before FACS analysis for apoptosis. For cellular apoptosis assay, Annexin V staining was measured using Annexin-V-FITC Apoptosis Detection Kit (Strong Biotech, Cat. No. AV 250) following the manufacturer's instruction. In brief, the treated cells were harvested and resuspended in Annexin V binding buffer containing Annexin V-FITC at room temperature. After 15 min incubation in the dark, the cells were washed twice with 200 ul of Annexin V binding buffer. Before FACS analysis, 0.25 ug/ml of propidium iodide (PI) was added. All flow cytometric analyses were performed on a BD-LSR flow cytometer (Becton Dickinson) using the Cell Quest software. The Annexin VI positive and/or PI positive cells are considered apoptotic cells.

COLO 205 cells [2] = assay: Binding assay: flow cytometric binding of 5F1 antibodies to COLO 205 cells; conditions: for binding to Colo 205 (words): FIG. 3, 0.125 to 4 ug/ml
Procedure: Purified m5F1, c5F1-v0, c5F1-v15 and c5F1-v16 antibodies at the concentration ranging from 0.125 to 4 ug/ml were added to 1.5×10^5 COLO 205 cells and incubated for 30 min at 4° C., washed for twice with PBS containing 2% FBS and 0.05% NaN3, followed by incubation with 1 μg/ml of corresponding secondary antibodies (R-PE-conjugated goat F(ab′)2 anti-mouse IgG(H+L), Southern Biotech, Cat. No. 1032-09; or R-PE-conjugated goat anti-human IgG, Southern Biotech, Cat. No. 2040-09) at 4° C. for 30 min. At the end of staining, samples were washed twice with PBS containing 2% FBS and 0.05% NaN3 and analyzed by flow cytometer. All flow cytometric analyses were performed on a BD-LSR flow cytometer (Becton Dickinson) using the Cell Quest software.
Purified m5F1, c5F1-v0, c5F1-yl7, c5F1-v24 and c5F1-v25 antibodies at 1 ug/ml were added to 2×10^5 Colo 205 cells and incubated for 30 min at 4° C., washed for twice with PBS containing 1% FBS, followed by incubation with 1 ug/ml of corresponding secondary antibodies (R-PE-conjugated goat F(ab′)2 anti-mouse IgG(H+L), Southern Biotech, Cat. No. 1032-09; or R-PE-conjugated goat anti-human IgG, Southern Biotech, Cat. No. 2040-09) at 4° C. for 30 min. At the end of staining, samples were washed twice with PBS containing 1% FBS and 0.05% NaN3 and analyzed by flow cytometer. All flow cytometric analyses were performed on a BD-LSR flow cytometer (Becton Dickinson) using the Cell Quest software.

Colo205 cells = assay: Apoptosis of Colo205 cells by 5F1 antibodies in combination with Oxaliplatin (24 h, Annexin V / PI); assay type: cell-based; conditions: background subtracted
Procedure: 1.4×10^5 of Colo205 cells were seeded into the wells of 96-well plates. Aliquots of Oxaliplatin reconstituted in 5% glucose solution were prepared freshly and added to each well at the final concentration of 1 and 10 ug/ml, along or in combination with aliquots of purified c5F1-v17, c5F1-v24, c5F1-v25 and control antibodies at the final concentrations of 10 and 30 ug/ml. The treated cells were kept at 37° incubator for 24 h before FACS analysis for apoptosis. For cellular apoptosis assay, Annexin V staining was measured using Annexin-V-FITC Apoptosis Detection Kit (Strong Biotech, Cat. No. AV 250) following the manufacturer's instruction. In brief, the treated cells were harvested and resuspended in Annexin V binding buffer containing Annexin V-FITC at room temperature. After 15 min incubation in the dark, the cells were washed twice with 200 ul of Annexin V binding buffer. Before FACS analysis, 0.5 ul of propidium iodide (PI) was added. All flow cytometric analyses were performed on a BD-LSR flow cytometer (Becton Dickinson) using the Cell Quest software. The Annexin V positive and/or PI positive cells are considered apoptotic cells.

Row | Molecule | apoptosis-inducing activity in COLO 205 (COLO 205 cells [1]; 2 to 32 ug/ml, compared with m5F1) | % of Annexin V and/or PI positive cells (COLO 205 cells [1]; Table 7, 4 ug/ml) [%] | % of Annexin V and/or PI positive cells (COLO 205 cells [1]; Table 7, 8 ug/ml) [%] | % of Annexin V and/or PI positive cells (COLO 205 cells [1]; Table 7, 16 ug/ml) [%] | % of Annexin V and/or PI positive cells (COLO 205 cells [1]; Table 7, 32 ug/ml) [%] | % of Annexin V and/or PI positive cells (COLO 205 cells [1]; Table 11 Exp. 1, 8 ug/ml) [%] | % of Annexin V and/or PI positive cells (COLO 205 cells [1]; Table 11 Exp. 1, 16 ug/ml) [%] | % of Annexin V and/or PI positive cells (COLO 205 cells [1]; Table 11 Exp. 1, 32 ug/ml) [%] | % of Annexin V and/or PI positive cells (COLO 205 cells [1]; Table 11 Exp. 2, 8 ug/ml) [%] | % of Annexin V and/or PI positive cells (COLO 205 cells [1]; Table 11 Exp. 2, 16 ug/ml) [%] | % of Annexin V and/or PI positive cells (COLO 205 cells [1]; Table 11 Exp. 2, 32 ug/ml) [%] | binding to Colo 205 (words) (COLO 205 cells [2]) | binding to Colo 205 (words) (COLO 205 cells [2]; listed as c5F1v0) | Median Fluorescence Intensity (MFI) (COLO 205 cells [2]; Table 10, antibodies at 1 ug/ml) | % apoptosis (Colo205 cells; Oxaliplatin 1 ug/ml alone (Antibody 0)) [%] | % apoptosis (Colo205 cells; Oxaliplatin 10 ug/ml alone (Antibody 0)) [%]
1 | c5F1-v0: chimeric 5F1: variable region of murine 5F1 with constant region of human IgG1; heavy chain v0[H], light chain v0[L] | not as efficient as m5F1 | 33 | 46 | 68 | 78 | 34 | 60 | 70 | 54 | 63 | 69 | bind COLO 205 cells | significant binding | 2760 |  | 
2 | O=C1[O][Pt]2([NH][C@@H]3CCCC[C@H]3[NH]2)[O]C1=O [Oxaliplatin] |  |  |  |  |  |  |  |  |  |  |  |  |  |  | 2 | 6
